Residues, ends and D or L forms follow the SMILES beside them.

Consider nine compounds from US10124033B2, “Peptides and methods of use” (BAXALTA INCORPORATED, priority 2014, dated 2018).

One assay deals with T1, Protein S (Homo sapiens, UniProt P07225).
T1 sequence (P07225 41-676 limits assumed): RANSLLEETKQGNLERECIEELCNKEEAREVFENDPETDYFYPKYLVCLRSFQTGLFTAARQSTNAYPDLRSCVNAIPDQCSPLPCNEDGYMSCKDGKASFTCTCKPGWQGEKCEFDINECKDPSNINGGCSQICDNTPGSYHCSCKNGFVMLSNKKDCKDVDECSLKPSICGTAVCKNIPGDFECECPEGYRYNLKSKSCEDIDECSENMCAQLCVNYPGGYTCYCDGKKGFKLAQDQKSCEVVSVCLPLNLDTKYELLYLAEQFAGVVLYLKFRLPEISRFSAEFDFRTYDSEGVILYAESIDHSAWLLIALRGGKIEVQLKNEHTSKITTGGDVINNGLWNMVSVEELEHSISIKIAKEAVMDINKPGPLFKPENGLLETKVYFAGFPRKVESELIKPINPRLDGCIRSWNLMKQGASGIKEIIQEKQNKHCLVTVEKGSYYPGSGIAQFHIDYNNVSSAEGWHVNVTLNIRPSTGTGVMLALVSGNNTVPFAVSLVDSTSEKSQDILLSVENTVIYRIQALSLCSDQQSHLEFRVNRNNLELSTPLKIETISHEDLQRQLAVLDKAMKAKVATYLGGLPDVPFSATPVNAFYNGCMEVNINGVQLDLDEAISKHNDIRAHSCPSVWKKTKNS
Briefly: competition (IC50) ELISA with biotinylated tracer peptide JBS0684. The assay is classed as binding. The following applies: competition ELISA, tracer JBS0684; re-synthesized peptides. On the procedure: The new peptide candidates were synthesized (purity >60%) and screened for affinity in a competitive binding assay (ELISA IC50) and activity in a thrombin generation assay (CAT). The competition (IC50) ELISA was performed using biotinylated tracer peptide JBS0684 to compete for Protein S-binding with candidate peptides. Peptides that compete with the tracer bind the same region of Protein S as the tracer (and each other). Ninety-six well PolySorp plates (Nunc) were coated with 3 μg/mL Protein S in coating buffer (15 mM Na2CO3, 35 mM NaHCO3, pH 9.6) over night. Plates were washed three times with wash buffer (HNaT: 175 mM NaCl, 25 mM HEPES, 5 mM CaCl2, 0.1% Tween 80, pH 7.35), and blocked with 100 μl 2% yeast extract in HNaT for at least 1 hour. Plates were then washed three times with HNaT. JBS0684 was applied at a concentration corresponding to the EC90 value determined in the binding ELISA. A competitor stock solution of peptide (10 mM) was diluted 1/33.3 in HNaT without HSA, and a serial ⅓ dilution was prepared with HNaT with 3% DMSO. The dilution was further diluted with the biotinylated tracer peptide in a ratio of 1:6 (20 μl competitor dilution and 100 μl tracer peptide). The mixture of competitor and tracer peptide was applied to the Protein S-coated microtiter plate and incubated for 1.5 hours. The plates were washed three times with HNaT. Peptide-Protein S binding was detected by applying HRP-conjugated streptavidin to the microtiter plate, incubating the mixture for one hour, washing the plate three times with HNaT, applying TMB (3,3′5,5′-Tetramethylbenzidin), and detecting the subsequent chromogenic conversion of TMB by HRP. IC50 measurements of peptides are provided herein (see, e.g., Table 3).
Take `CC(=O)N[C@H](C(=O)NCC(=O)N[C@@H](Cc1c[nH]cn1)C(=O)N[C@H](C(=O)N[C@@H](CO)C(=O)N[C@@H](C)C(=O)NCC(=O)N[C@@H](Cc1c[nH]c2ccccc12)C(=O)N[C@@H](Cc1ccc(O)cc1)C(=O)N[C@@H](CC(=O)O)C(=O)N[C@@H](Cc1ccc(O)cc1)C(=O)N[C@@H](CC(N)=O)C(=O)N[C@@H](Cc1ccccc1)C(=O)N[C@@H](CC(=O)O)C(=O)N[C@@H](C)C(=O)N[C@@H](Cc1ccc(O)cc1)C(=O)N[C@@H](CCCNC(=N)N)C(=O)N[C@@H](CCC(=O)O)C(=O)N[C@@H](Cc1ccccc1)C(=O)N[C@H](C(N)=O)[C@@H](C)O)C(C)C)[C@@H](C)O` [JBS2528] (Ac-TGHVSAGWYDYNFDAYREFT-NH2): the IC50 amounted to 5.2 nM.
Compound `CC(=O)N[C@H](C(=O)NCC(=O)N[C@@H](Cc1c[nH]cn1)C(=O)N[C@H](C(=O)N[C@@H](CO)C(=O)N[C@@H](C)C(=O)NCC(=O)N[C@@H](Cc1c[nH]c2ccccc12)C(=O)N[C@@H](Cc1ccc(O)cc1)C(=O)N[C@@H](CC(=O)O)C(=O)N[C@@H](Cc1ccc(O)cc1)C(=O)N[C@@H](CC(N)=O)C(=O)N[C@@H](CC(C)C)C(=O)N[C@@H](CC(=O)O)C(=O)N[C@@H](Cc1c[nH]cn1)C(=O)N[C@@H](Cc1ccc(O)cc1)C(=O)N[C@@H](CCCNC(=N)N)C(=O)N[C@@H](CCC(=O)O)C(=O)N[C@@H](Cc1ccccc1)C(=O)N[C@H](C(N)=O)[C@@H](C)O)C(C)C)[C@@H](C)O` [JBS2582] (Ac-TGHVSAGWYDYNLDHYREFT-NH2) registered an IC50 of 2.3 nM.
Turning to `CC(=O)N[C@H](C(=O)NCC(=O)N[C@@H](CCCCN)C(=O)N[C@H](C(=O)N[C@@H](CO)C(=O)N[C@@H](C)C(=O)NCC(=O)N[C@@H](Cc1c[nH]c2ccccc12)C(=O)N[C@@H](Cc1ccc(O)cc1)C(=O)N[C@@H](CC(=O)O)C(=O)N[C@@H](Cc1ccc(O)cc1)C(=O)N[C@@H](CC(N)=O)C(=O)N[C@@H](Cc1ccccc1)C(=O)N[C@@H](CC(=O)O)C(=O)N[C@@H](Cc1c[nH]cn1)C(=O)N[C@@H](Cc1ccc(O)cc1)C(=O)N[C@@H](CCCNC(=N)N)C(=O)N[C@@H](CCC(=O)O)C(=O)N[C@@H](Cc1ccccc1)C(=O)N[C@H](C(N)=O)[C@@H](C)O)C(C)C)[C@@H](C)O` [JBS2592] (Ac-TGKVSAGWYDYNFDHYREFT-NH2), the IC50 is 5.6 nM.
In turn, `CC(=O)N[C@H](C(=O)NCC(=O)N[C@@H](Cc1c[nH]cn1)C(=O)N[C@H](C(=O)N[C@@H](CO)C(=O)N[C@@H](C)C(=O)NCC(=O)N[C@@H](Cc1c[nH]c2ccccc12)C(=O)N[C@@H](Cc1ccc(O)cc1)C(=O)N[C@@H](CC(=O)O)C(=O)N[C@@H](Cc1ccc(O)cc1)C(=O)N[C@@H](CC(N)=O)C(=O)N[C@@H](Cc1ccccc1)C(=O)N[C@@H](CC(=O)O)C(=O)N[C@@H](Cc1c[nH]cn1)C(=O)N[C@@H](Cc1ccc(O)cc1)C(=O)N[C@@H](Cc1ccccc1)C(=O)N[C@@H](CCC(=O)O)C(=O)N[C@@H](Cc1ccccc1)C(=O)N[C@H](C(N)=O)[C@@H](C)O)C(C)C)[C@@H](C)O` [JBS2625] (Ac-TGHVSAGWYDYNFDHYFEFT-NH2) showed an IC50 of 1.6 nM.
The compound `CC(=O)N[C@H](C(=O)N1CCC[C@H]1C(=O)N[C@@H](Cc1c[nH]cn1)C(=O)N[C@H](C(=O)N[C@@H](CO)C(=O)N[C@@H](C)C(=O)NCC(=O)N[C@@H](Cc1c[nH]c2ccccc12)C(=O)N[C@@H](Cc1ccc(O)cc1)C(=O)N[C@@H](CC(=O)O)C(=O)N[C@@H](Cc1ccc(O)cc1)C(=O)N[C@@H](CC(N)=O)C(=O)N[C@@H](Cc1ccccc1)C(=O)N[C@@H](CC(=O)O)C(=O)N[C@@H](Cc1c[nH]cn1)C(=O)N[C@@H](Cc1ccc(O)cc1)C(=O)N[C@@H](CCCNC(=N)N)C(=O)N[C@@H](CCC(=O)O)C(=O)N[C@@H](Cc1ccccc1)C(=O)N[C@H](C(N)=O)[C@@H](C)O)C(C)C)[C@@H](C)O` [JBS2629] (Ac-TPHVSAGWYDYNFDHYREFT-NH2) displayed an IC50 of 3.1 nM.
Compound `CC(=O)N[C@H](C(=O)NCC(=O)N[C@@H](Cc1c[nH]cn1)C(=O)N[C@H](C(=O)N[C@@H](CO)C(=O)N[C@@H](C)C(=O)NCC(=O)N[C@@H](Cc1c[nH]c2ccccc12)C(=O)N[C@@H](Cc1ccc(O)cc1)C(=O)N[C@@H](CC(=O)O)C(=O)N[C@@H](Cc1ccc(O)cc1)C(=O)N[C@@H](CC(N)=O)C(=O)N[C@@H](Cc1ccccc1)C(=O)N[C@@H](CC(=O)O)C(=O)N[C@@H](CO)C(=O)N[C@@H](Cc1ccc(O)cc1)C(=O)N[C@@H](CCCNC(=N)N)C(=O)N[C@@H](CCC(=O)O)C(=O)N[C@@H](Cc1ccccc1)C(=O)N[C@H](C(N)=O)[C@@H](C)O)C(C)C)[C@@H](C)O` [JBS2661] (Ac-TGHVSAGWYDYNFDSYREFT-NH2) registered an IC50 of 2.8 nM.

For the next assay, the target named is T1, Protein S. As to the kind of experiment: LANCE IC50 assay (competition TR-FRET) with tracer JBS0684. Format: binding. Conditions: Table 4, multiple substitutions in JBS2572; read-out: LANCE IC50. On the procedure:
Peptides also were characterized in a competition, homogenous europium-based TR-FRET assay (LANCE IC50 assay) using JBS0684 as a tracer (i.e., competitor for Protein S binding). The following reagents were mixed together in a Perkin-Elmer ProxiPlate MTP well (indicated concentration is the final concentration): Eu-labeled Protein S (10 nM), Ulight™-labeled Streptavidin (100 nM), tracer (JBS0684 (300 nM)), and peptide (titrated in three-fold dilution steps). The final volume was 50 μl/well. The reaction mix was incubated for 1 hour at room temperature, then the fluorescence emission at 665 nm was recorded on a multi-mode reader (SpectraMax® M5, Molecular Devices) using the following instrument settings: Ex 340 nm, Em 665 nm, delay 50 μsec, integration 100 μsec, reads 100. Binding of tracer peptides to soluble europium-labeled Protein S was detected by Streptavidin labeled with an acceptor fluorophor (ULight™). Inhibition of tracer-binding to Protein S by a non-biotinylated peptide results in a decrease of TR-FRET between the Eu-labeled Protein S and ULight™-labeled Streptavidin. IC50 values were obtained from peptide titration curves at constant tracer concentration using non-linear regression of the fluorescence emission signals at 665 nm.
With `CSCC[C@H](NC(=O)[C@H](Cc1ccc(O)cc1)NC(=O)[C@@H](NC(=O)[C@H](CC(=O)O)NC(=O)[C@H](Cc1ccccc1)NC(=O)[C@H](CC(N)=O)NC(=O)[C@H](Cc1ccc(O)cc1)NC(=O)[C@H](CC(=O)O)NC(=O)[C@H](Cc1ccc(O)cc1)NC(=O)[C@H](Cc1c[nH]c2ccccc12)NC(=O)CNC(=O)[C@H](C)NC(=O)[C@H](CO)NC(=O)[C@@H](NC(=O)[C@H](CC(C)C)NC(=O)CNC(=O)[C@@H](NC(C)=O)[C@@H](C)O)C(C)C)[C@@H](C)O)C(=O)N[C@@H](CCC(=O)O)C(=O)N[C@@H](Cc1ccccc1)C(=O)N[C@H](C(N)=O)[C@@H](C)O` [JBS3186] (Ac-TGLVSAGWYDYNFDTYMEFT-NH2), the 50% inhibitory concentration (IC50) is 2.6 nM.
Regarding `CC(=O)N[C@@H](Cc1ccc(O)cc1)C(=O)NCC(=O)N[C@@H](CC(C)C)C(=O)N[C@H](C(=O)N[C@@H](CO)C(=O)N[C@@H](C)C(=O)NCC(=O)N[C@@H](Cc1c[nH]c2ccccc12)C(=O)N[C@@H](Cc1ccc(O)cc1)C(=O)N[C@@H](CC(=O)O)C(=O)N[C@@H](Cc1ccc(O)cc1)C(=O)N[C@@H](CC(N)=O)C(=O)N[C@@H](Cc1ccccc1)C(=O)N[C@@H](CC(=O)O)C(=O)N[C@H](C(=O)N[C@@H](Cc1ccc(O)cc1)C(=O)N[C@@H](CCCNC(=N)N)C(=O)N[C@@H](CCC(=O)O)C(=O)N[C@@H](Cc1ccccc1)C(=O)N[C@H](C(N)=O)[C@@H](C)O)[C@@H](C)O)C(C)C` [JBS3190] (Ac-YGLVSAGWYDYNFDTYREFT-NH2), the IC50 was 1.6 nM.
As to `CC(=O)N[C@@H](Cc1ccc(O)cc1)C(=O)NCC(=O)N[C@@H](CC(C)C)C(=O)N[C@H](C(=O)N[C@@H](CO)C(=O)N[C@@H](C)C(=O)NCC(=O)N[C@@H](Cc1c[nH]c2ccccc12)C(=O)N[C@@H](Cc1ccc(O)cc1)C(=O)N[C@@H](CC(=O)O)C(=O)N[C@@H](Cc1ccc(O)cc1)C(=O)N[C@@H](CC(N)=O)C(=O)N[C@@H](Cc1ccccc1)C(=O)N[C@@H](CC(=O)O)C(=O)N[C@H](C(=O)N[C@@H](Cc1ccc(O)cc1)C(=O)N[C@@H](CCCNC(=N)N)C(=O)N[C@@H](CCC(=O)O)C(=O)N[C@@H](Cc1ccccc1)C(=O)N[C@H](C(N)=O)[C@@H](C)O)C(C)C)C(C)C` [JBS3191] (Ac-YGLVSAGWYDYNFDVYREFT-NH2), the IC50 came to 1.6 nM.
